This note sets out measurements from patent US20160193250A1, “CHORION-DERIVED MSCS CELLS AND CONDITIONED MEDIA AS INDUCER FOR ANGIOGENESIS APPLICATION FOR THE TREATMENT OF CARDIAC DEGENERATION” (CELLS FOR CELLS, priority 2013, published 2016).

Experiment [1] has as its system genes involved in cardio-myogenesis (NKX2-5, GATA-4, MEF2C, MYH7B, GJA1, TNNT2). Nature of the experiment: Cardio-myogenic induction with 5-azacytidine, relative gene expression by RT-qPCR. It counts as cell-based, human. The settings on record: all MSC sources treated with 5-aza, 30 days of culture after induction. From the text:
In order to assess chorion, decidua, gelatin of Wharton, and bone marrow MSCs cardio-myogenic potential, 3000 cells per cm^2 of each one of the MSCs were planted in biologic triplicate (3 different donors) in a plate of 6, leaving 3 bowls for induced condition and other 3 for control condition. This method was developed to obtain cells for assessment through RT-qPCR. However, in order to assess protein expression through indirect immunofluorescence (IFI), cells were planted on a […] circular glass cover placed on a 24-bowl plate, leaving 12 bowls for induced condition and 12 bowls for control condition. […]
The polymerase chain reaction in real time, preceded by reverse transcription (RT-qPCR), was based on quantification kinetics that allowed calculating the messenger RNA through the recording of PCR product forming in real time. This was the quantification, during the reaction exponential stage, of amplified PCR products and labeled with fluorochrome. In this work, a relative quantification of genes of interest was carried out, i.e. a gene of interest expression level is obtained compared to another one that keeps its expression constant and is called standardizing gene; therefore, in this thesis human gene B2M was selected as standardizing. […]
In general terms: Quantitative PCR measures a nucleic acid by following its amplification.

A further experiment concerns MSCs. Nature of the experiment: MSC morphology during cardiac induction with 5-aza. The experiment is classed as cell-based, human. The settings on record: MSCs treated with 5-aza. The text has this:
In order to establish morphology changes occurred in MSCs treated with 5-aza, photographs were taken daily for later analysis. […] After 20 days, confluence in both conditions was quite similar and reached 100%. In some dishes, it was common to find a reduced percentage (10%) of cells with vacuoles inside them. On the other hand, it was also noted that a large percentage (approximately 70%) of cells adopted a rounded and flat morphology, while other presented a longish tubular morphology which, in some cases, were multi-core.
For induction, MSCs we incubated with DMEM, 2% FBS, 1% Pen/Strep, 1% L-glutamine, supplemented with 10 μM 5-zacitidine (Sigma, USA) during 24 hours, and kept in a humidified and thermo-regulated incubator at 37° C. and 5% CO2. Later, they were removed from the induction medium, cells were washed three times with PBS 1× adjusted to ph 7.4 (Life Technologies, USA), and cultured in a maintenance medium during 30 days, being renewed every three days. The control condition corresponded to cells submitted to DMEM 2% FBS with no 5-aza during 24 hours, and then cultured in maintenance medium during 30 days.

Regarding `Nc1ncn([C@@H]2O[C@H](CO)[C@@H](O)[C@H]2O)c(=O)n1` [5-aza, 5-azacytidine], in experiment [1], the “relative expression of all genes associated to cardio-myogenesis compared to control” value is reported as “significant increase”. Besides, the “percentage of cells with rounded and flat morphology” value in the experiment with MSCs is on record as “approximately 70%”. For the same compound, the “percentage of cells with vacuoles inside them” value in the experiment with MSCs (in some dishes) amounted to 10%.
